Source: patent US20130064955A1, “NATURAL SWEETENED COMPOSITIONS AND METHODS FOR PREPARING THE SAME” (priority 2011, published 2013)
“Also recorded” adds a separate entry of the source.

What was measured:
human sense of taste [1] = experiment: Determination of sweetness recognition threshold concentration by trained taste tester; type: in vivo; settings: in water at room temperature; for minimal effective concentration: Homo sapiens, read-out: Sweetness recognition threshold Level
Procedure: The term “sweetness recognition threshold concentration,” as generally used herein, is the lowest known concentration of a sweet compound that is perceivable by the human sense of taste. The sweetness recognition threshold level is specific for a particular compound, and varies based on temperature, matrix, ingredients and/or flavor system. The sweetness recognition threshold concentrations measurements and 5% sucrose equivalence measurements described herein were determined in water at room temperature.
A sip (approximately 2-5 mL) of control sample, including but not limited to water, was tasted and swallowed by a trained taste tester. After allowing a 15-25 second interval to pass, a second sip of the control is tasted and swallowed. The taste properties of the control are determined and recorded by the trained taste tester. An unknown sample is then tasted and swallowed in the same manner, allowing a 15-25 second interval between the two sips. Preferably no more than ten additives are tested per day to avoid taste fatigue. Each sample was taken at least 1.5 hours following eating or drinking The sweetness recognition thresholds concentration of 21 steviol glycosides were determined in this manner, and are shown in Table 1.

human sense of taste [2] = experiment: Sugar-like taste quality enhancement of Stevia sweeteners by steviol glycoside additives, taste test by trained individual; type: in vivo; settings: for Taste change of Stevia Sweetener REBA (303 ppm) with Steviol Glycoside Additive / Taste change of Stevia Sweetener JSS (380 ppm) with Steviol Glycoside Additive / Taste change of Stevia Sweetener REBD (303 ppm) with Steviol Glycoside Additive: additive at or below its sweetness recognition threshold concentration, 5% sucrose equivalence, water, room temperature; for Taste change of Stevia Sweetener REBA (303 ppm) with Steviol Glycoside Additive: 97% pure rebaudioside A 303 ppm; for Taste change of Stevia Sweetener REBD (303 ppm) with Steviol Glycoside Additive: rebaudioside D 303 ppm; for sugar-like taste quality enhancement effect: mostly in 5% SE rebaudioside A, compared with compound 1;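 on Taste change of Stevia Sweetener JSS (380 ppm) with Steviol Glycoside Additive: code −B means less bitterness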
Procedure: A steviol glycoside is added in an amount at or below sweetness recognition threshold concentration to a solution of water and a Stevia sweetener. The solution is maintained at room temperature. Each sample is taste tested by a trained individual, as described in Example 1, in duplicate. Preferably no more than ten steviol glycosides are tested per day to avoid taste fatigue. Each sample was taken at least 1.5 hours following eating or drinking
The Stevia sweeteners used in this study were 97% pure rebaudioside A, JSS, and rebaudioside D.
The steviol glycosides were used in at or below sweetness recognition threshold concentrations. […]

[3] = additive at 500 ppm, all three control 5% SE Stevia sweeteners

SMILES | minimal effective concentration (human sense of taste [1]) | Taste change of Stevia Sweetener REBA (303 ppm) with Steviol Glycoside Additive (human sense of taste [2]) | Taste change of Stevia Sweetener JSS (380 ppm) with Steviol Glycoside Additive (human sense of taste [2]) | Taste change of Stevia Sweetener REBD (303 ppm) with Steviol Glycoside Additive (human sense of taste [2]) | sugar-like taste quality enhancement effect (human sense of taste [2]) | Sweetness recognition threshold Level (human sense of taste [1]) | further results
C[C@@]12CCC[C@@](C)(C(=O)O)[C@H]1CC[C@@]13C[C@@](OC4OC(CO)C(O)C(OC5OC(CO)C(O)C(O)C5O)C4OC4OC(CO)C(O)C(O)C4O)(CC[C@H]12)[C@](C)(O)C3 (some centres unmarked) [Compound 1] | 500 µg/mL | ++, ASLC,; also recorded: +S, −B | ++, ASLC,; also recorded: +S, −B | ++, ASLC,; also recorded: +S, −B |  |  | bitterness, sweet lingering, off-taste note (human sense of taste [2]; [3]): no bitterness, sweet lingering or off-taste note; slightly sweeter profile (increase in sucrose equivalence) (human sense of taste [2]; [3]): ca. 1 % SE; sugar-like tasting quality enhancement (human sense of taste [2]; [3]): significantly enhanced all three control 5% SE Stevia sweeteners to a much superior sugar-like tasting quality
CC1=C[C@@]23CC[C@H]4[C@@](C)(CCC[C@@]4(C)C(=O)O)[C@@H]2CC[C@]1(OC1OC(CO)C(O)C(OC2OC(CO)C(O)C(O)C2O)C1OC1OC(CO)C(O)C(O)C1O)C3 (some centres unmarked) [Compound 2] | 35 µg/mL | ++, −SL, −B | DB (DB: Different pattern of bitterness;) | N(+), W | similar, but smaller positive sugar-like taste quality enhancement effect |  | 
C[C@@]12CCC[C@@](C)(C(=O)OC3OC(CO)C(O)C(O)C3O)[C@H]1CC[C@@]13C[C@@](OC4OC(CO)C(O)C(OC5OC(CO)C(O)C(O)C5O)C4OC4OC(CO)C(O)C(O)C4O)(CC[C@H]12)[C@](C)(O)C3 (some centres unmarked) [Compound 3] | 700 µg/mL | +, −B, −SL, OF | −B, OF | +, −SL, OF | similar, but smaller positive sugar-like taste quality enhancement effect |  | modulation of Stevia sweeteners (human sense of taste [2]; additive at 700 ppm, all Stevia sweeteners): positive modulation of all Stevia sweeteners; off-taste note (human sense of taste [2]; additive at 700 ppm, with Stevia sweeteners): weak chemical-like note
CC1=C[C@@]23CC[C@H]4[C@@](C)(CCC[C@@]4(C)C(=O)OC4OC(CO)C(O)C(O)C4O)[C@@H]2CC[C@]1(OC1OC(CO)C(O)C(OC2OC(CO)C(O)C(O)C2O)C1OC1OC(CO)C(O)C(O)C1O)C3 (some centres unmarked) [Compound 4] | 25 µg/mL | N (N: no difference in presence or absence of steviol glycoside additive;) | N (N: no difference in presence or absence of steviol glycoside additive;) | N (N: no difference in presence or absence of steviol glycoside additive;) |  |  | 
C[C@@]12CCC[C@@](C)(C(=O)OC3OC(CO)C(O)C(O)C3O)[C@H]1CC[C@]13C=C(CO)[C@](OC4OC(CO)C(O)C(OC5OC(CO)C(O)C(O)C5O)C4OC4OC(CO)C(O)C(O)C4O)(CC[C@H]12)C3 (some centres unmarked) [Compound 5] | 250 µg/mL | +, −B, W | N (N: no difference in presence or absence of steviol glycoside additive;) | N (N: no difference in presence or absence of steviol glycoside additive;) | similar, but smaller positive sugar-like taste quality enhancement effect |  | sugar-like taste quality (human sense of taste [2]; additive at 250 ppm, rebaudioside A): improve the sugar-like taste quality of rebaudioside A
C=C1C[C@@]23CC[C@H]4[C@@](C)(CCC[C@@]4(C)C(=O)O[C@@H]4O[C@H](CO)[C@@H](O)[C@H](O)[C@H]4O)[C@@H]2CC[C@]1(O[C@@H]1O[C@H](CO)[C@@H](O)[C@H](O)[C@H]1O[C@@H]1O[C@@H](C)[C@H](O)[C@@H](O)[C@H]1O)C3 [Dulcoside A, dulcoside A] |  | N (N: no difference in presence or absence of steviol glycoside additive;) | N (N: no difference in presence or absence of steviol glycoside additive;) | N (N: no difference in presence or absence of steviol glycoside additive;) |  | 50 ppm | 
C[C@H](CC[C@@H](O[C@@H]1O[C@H](CO[C@@H]2O[C@H](CO)[C@@H](O)[C@H](O)[C@H]2O)[C@@H](O)[C@H](O)[C@H]1O[C@@H]1O[C@H](CO)[C@@H](O)[C@H](O)[C@H]1O)C(C)(C)O)[C@H]1CC[C@@]2(C)[C@@H]3CC=C4[C@@H](CC[C@H](O[C@@H]5O[C@H](CO[C@@H]6O[C@H](CO)[C@@H](O)[C@H](O)[C@H]6O)[C@@H](O)[C@H](O)[C@H]5O)C4(C)C)[C@]3(C)[C@H](O)C[C@]12C [Mogroside V, mogroside V] |  | N (N: no difference in presence or absence of steviol glycoside additive;) | N (N: no difference in presence or absence of steviol glycoside additive;) | ~+S (~+S: Slightly more detected sweetness intensity (~0.5% Sucrose Equivalence);) |  | 20 ppm | Sweetness recognition threshold Level (human sense of taste [1]; listed as mogroside V): about 15 ppm
C=C1C[C@@]23CC[C@H]4[C@@](C)(CCC[C@@]4(C)C(=O)O[C@@H]4O[C@H](CO)[C@@H](O)[C@H](O)[C@H]4O)[C@@H]2CC[C@]1(O[C@@H]1O[C@H](CO)[C@@H](O)[C@H](O[C@@H]2O[C@H](CO)[C@@H](O)[C@H](O)[C@H]2O)[C@H]1O[C@@H]1O[C@H](CO)[C@@H](O)[C@H](O)[C@H]1O)C3 [Rebaudioside A, rebaudioside A] |  |  | N (N: no difference in presence or absence of steviol glycoside additive;) | N (N: no difference in presence or absence of steviol glycoside additive;) |  | 12.6 ppm | Sweetness recognition threshold Level (human sense of taste [1]; listed as rebaudioside A): about 12.6 ppm
C=C1C[C@@]23CC[C@H]4[C@@](C)(CCC[C@@]4(C)C(=O)O[C@@H]4O[C@H](CO)[C@@H](O)[C@H](O)[C@H]4O[C@@H]4O[C@H](CO)[C@@H](O)[C@H](O)[C@H]4O)[C@@H]2CC[C@]1(O[C@@H]1O[C@H](CO)[C@@H](O)[C@H](O[C@@H]2O[C@H](CO)[C@@H](O)[C@H](O)[C@H]2O)[C@H]1O[C@@H]1O[C@H](CO)[C@@H](O)[C@H](O)[C@H]1O)C3 [Rebaudioside D, rebaudioside D] |  | N (N: no difference in presence or absence of steviol glycoside additive;) | N (N: no difference in presence or absence of steviol glycoside additive;) |  |  | 25 ppm | Sweetness recognition threshold Level (human sense of taste [1]; listed as rebaudioside D): about 25 ppm
C=C1C[C@@]23CC[C@H]4[C@@](C)(CCC[C@@]4(C)C(=O)O[C@@H]4O[C@H](CO)[C@@H](O)[C@H](O)[C@H]4O)[C@@H]2CC[C@]1(O[C@@H]1O[C@H](CO)[C@@H](O)[C@H](O)[C@H]1O)C3 [Rubusoside, rubusoside] | 50 µg/mL | N(+) (N(+): same as “N” but slightly more;) | N (N: no difference in presence or absence of steviol glycoside additive;) | N (N: no difference in presence or absence of steviol glycoside additive;) |  |  | 
